This passage reports MIC, Activity and MHC results from ChEMBL document CHEMBL3217499, “Membrane disrupting antimicrobial peptide dendrimers with multiple amino termini” (Medchemcomm, 2012).

In brackets after ≈: the same amount, converted by molar mass. Activity calls are given as the source filed them. Where a SMILES comes first, the peptide text is derived from it. Bridges are numbered along the chain shown (N, C = ends). Roman numbers before positions name the chains, in order. Side-chain parts run from the residue outwards. [ ]: non-standard residue; d: D form. The star is where a group is joined. X1 = CC(C)C[C@H](N)C(=O)NC[C@H](NC(=O)[C@@H](N)CC(C)C)C(=O)*; Dap = NC[C@H](N)C(=O)O

Data set [1] relates to Escherichia coli. Description: Antibacterial activity against Escherichia coli DH5[alpha] after 18 to 24 hrs by broth microdilution assay. Format: functional. Background: Broth dilution looks for growth in wells or tubes with falling amounts of substance.
In data set [2] the test system is Lipid bilayer. Description: Induction of membrane disruption in synthetic unilamellar vesicles assembled from Escherichia coli lipids at 25 ug/ml after 16 hrs by negative-stain transmission electron microscopic analysis. In kind it is functional.
Data set [3] deals with Pseudomonas aeruginosa. The data set can be described thus: Antibacterial activity against Pseudomonas aeruginosa 8S/H by broth microdilution assay. Format: functional.
Data set [4] relates to Staphylococcus aureus. The data set can be described thus: Antibacterial activity against Staphylococcus aureus ATCC 25923 by broth microdilution assay. Format: functional.
For data set [5], the system named is Pseudomonas aeruginosa. The data set can be described thus: Antibacterial activity against Pseudomonas aeruginosa PAO1 HS by broth microdilution assay. In kind it is functional.
The subject of data set [6] is Escherichia coli. The data set can be described thus: Antibacterial activity against Escherichia coli ATCC 25922 by broth microdilution assay. Format: functional.
The test system of data set [7] is Enterococcus faecalis. Description: Antibacterial activity against Enterococcus faecalis ATCC 29212 by broth microdilution assay. In kind it is functional.
The test system of data set [8] is Pseudomonas aeruginosa. The data set can be described thus: Antibacterial activity against Pseudomonas aeruginosa K799/61 by broth microdilution assay. Format: functional.
Data set [9] concerns Escherichia coli. Description: Antibacterial activity against Escherichia coli DC2 by broth microdilution assay. In kind it is functional.
For data set [10], the system named is Staphylococcus aureus. The data set can be described thus: Antibacterial activity against methicillin-resistant Staphylococcus aureus 42080 by broth microdilution assay. In kind it is functional.
For data set [11], the system named is Enterococcus faecalis. The data set can be described thus: Antibacterial activity against Enterococcus faecalis Van BE80-8 by broth microdilution assay. Format: functional.
For data set [12], the system named is Staphylococcus aureus. Description: Antibacterial activity against Staphylococcus aureus ATCC 29213 by broth microdilution assay. In kind it is functional.
Data set [13] has as its system Staphylococcus aureus. Description: Antibacterial activity against Staphylococcus aureus 887 by broth microdilution assay. In kind it is functional.
In data set [14] the test system is Pseudomonas aeruginosa. The data set can be described thus: Antibacterial activity against Pseudomonas aeruginosa PAO1 after 18 to 24 hrs by broth microdilution assay. In kind it is functional.
In data set [15] the test system is Staphylococcus epidermidis. The data set can be described thus: Antibacterial activity against Staphylococcus epidermidis J147 by broth microdilution assay. Format: functional.
In data set [16] the test system is Escherichia coli. The data set can be described thus: Antibacterial activity against Escherichia coli HB101 (PAT 266) by broth microdilution assay. Format: functional.
Data set [17] has as its system Pseudomonas aeruginosa. The data set can be described thus: Antibacterial activity against Pseudomonas aeruginosa K799/WT by broth microdilution assay. In kind it is functional.
Data set [18] concerns Pseudomonas aeruginosa. The data set can be described thus: Antibacterial activity against Pseudomonas aeruginosa ATCC 27853 by broth microdilution assay. Format: functional.
For data set [19], the system named is Bacillus subtilis. Description: Antibacterial activity against Bacillus subtilis BR151 after 18 to 24 hrs by broth microdilution assay. In kind it is functional.
Data set [20] relates to Enterococcus faecium. The data set can be described thus: Antibacterial activity against Enterococcus faecium ATCC 19434 by broth microdilution assay. In kind it is functional.
The test system of data set [21] is Enterococcus faecium. The data set can be described thus: Antibacterial activity against Enterococcus faecium Van BE38-10 by broth microdilution assay. Format: functional.
Data set [22] is described as follows: Hemolytic activity in human RBC after 4 hrs. In kind it is ADME, cell-based. The note with it: erythrocyte.
Data set [23] has as its system Staphylococcus epidermidis. Description: Antibacterial activity against Staphylococcus epidermidis ATCC 14990 by broth microdilution assay. In kind it is functional.

For the molecule `CC(C)C[C@H](NC(=O)[C@H](CCCCNC(=O)[C@@H](N)CC(C)C)NC(=O)[C@@H](N)CC(C)C)C(=O)NCCCC[C@H](NC(=O)[C@H](CC(C)C)NC(=O)[C@H](CCCCNC(=O)[C@@H](N)CC(C)C)NC(=O)[C@@H](N)CC(C)C)C(=O)N[C@@H](Cc1ccccc1)C(=O)NCCCC[C@H](NC(=O)[C@H](Cc1ccccc1)NC(=O)[C@H](CCCCNC(=O)[C@H](CC(C)C)NC(=O)[C@H](CCCCNC(=O)[C@@H](N)CC(C)C)NC(=O)[C@@H](N)CC(C)C)NC(=O)[C@H](CC(C)C)NC(=O)[C@H](CCCCNC(=O)[C@@H](N)CC(C)C)NC(=O)[C@@H](N)CC(C)C)C(=O)N[C@@H](CCCCN)C(N)=O`, the MIC in data set [1] was 21 mg/L (≈ 7.79 µM); in data set [3], above 32 mg/L; in [4], 24 mg/L (≈ 8.91 µM); in [5], above 32 mg/L; in data set [6], above 32 mg/L; in data set [7], above 32 mg/L. Moreover, the MIC is above 32 mg/L in data set [8]; above 32 mg/L in [9]; above 32 mg/L in data set [10]; above 32 mg/L in data set [11]; above 32 mg/L in data set [12]; 12 mg/L (≈ 4.45 µM) in [13]. In addition, the MIC in data set [14] is above 72 mg/L; in data set [15], 24 mg/L (≈ 8.91 µM); in data set [16], 32 mg/L (≈ 11.9 µM); in data set [17], above 32 mg/L; in data set [18], above 32 mg/L; in [19], 2 mg/L (≈ 0.742 µM). In addition, the values for the MIC in [20], in [21] and in data set [23] were at least 32 mg/L, 32 mg/L (≈ 11.9 µM) and 32 mg/L (≈ 11.9 µM), respectively. In addition, the outcome in data set [2] was Active. Besides, the MHC in data set [22] was 310 µg/mL.
For `CC(C)C[C@H](NC(=O)[C@H](CNC(=O)[C@@H](N)CC(C)C)NC(=O)[C@@H](N)CC(C)C)C(=O)NC[C@H](NC(=O)[C@H](CC(C)C)NC(=O)[C@H](CNC(=O)[C@@H](N)CC(C)C)NC(=O)[C@@H](N)CC(C)C)C(=O)N[C@@H](Cc1ccccc1)C(=O)NC[C@H](NC(=O)[C@H](Cc1ccccc1)NC(=O)[C@H](CNC(=O)[C@H](CC(C)C)NC(=O)[C@H](CNC(=O)[C@@H](N)CC(C)C)NC(=O)[C@@H](N)CC(C)C)NC(=O)[C@H](CC(C)C)NC(=O)[C@H](CNC(=O)[C@@H](N)CC(C)C)NC(=O)[C@@H](N)CC(C)C)C(=O)N[C@@H](CCCCN)C(N)=O` (I: H-L[Dap](Leu)L[Dap]([Leu-X1])F[Dap]K-NH2 / II: H-L[Dap](Leu)L[Dap]([Leu-X1])F; amide I:6-II:C), the MIC in data set [1] is 3.9 mg/L (≈ 1.62 µM); in data set [3] it was above 32 mg/L; in data set [4], at least 32 mg/L; in data set [5], above 32 mg/L; in [6], above 32 mg/L; in data set [7] it was above 32 mg/L. In addition, the MIC was above 32 mg/L in data set [8]; 32 mg/L (≈ 13.3 µM) in data set [9]; above 32 mg/L in data set [10]; above 32 mg/L in data set [11]; above 32 mg/L in data set [12]; 32 mg/L (≈ 13.3 µM) in data set [13]. Moreover, the MIC was 18 mg/L (≈ 7.5 µM) in data set [14]; 24 mg/L (≈ 10 µM) in data set [15]; 32 mg/L (≈ 13.3 µM) in [16]; above 32 mg/L in [17]; above 32 mg/L in [18]; 2.9 mg/L (≈ 1.21 µM) in [19]. The MIC is above 32 mg/L in data set [20], above 32 mg/L in data set [21] and 24 mg/L (≈ 10 µM) in data set [23]. Also, the MHC in [22] was above 2000 µg/mL.

One may read the MIC as the smallest concentration in the dilution series that meets the test's criterion for growth inhibition. Read a low MIC as a more susceptible organism.
